Assay results from patent US10101331B2, “Methods of evaluating patients using E-cadherin or vimentin” (AGIOS PHARMACEUTICALS, INC, priority 2012, dated 2018).

Legend:
Format in all cases: cell-based
MDA-MB-231 cells [1] = assay: 72 hr proliferation assay in lines stably expressing empty vector, GAC or GAC-BR
Description: (§1) MDA-MB-231 cell lines stably expressing empty vector control (Con), wild-type GAC (GAC), or a BPTES-resistant GAC enzyme (GAC-BR) were treated with indicated concentrations of drugs in a 72 hr proliferation assay. […] Calculated p-values from student t-test, * (3×10^−5), **(7×10^−10), ^#(3×10^−5), ^##(5×10^−7).
Levels of overexpression of the GAC WT and GAC-BR mutant were approximately 1.5-2.0 fold above endogenous GLS1 levels (FIG. 12).

LXF-289 = assay: Lung cancer cell line panel screened for sensitivity to BPTES, 72 hr proliferation assay
NCI-H28 = assay: Mesothelioma cancer cell lines screened for sensitivity to BPTES; settings: NCI-H28, among mesothelioma cancer cell lines
From the text: The MET-5A cell line is a normal […] cell line.
Low E-cadherin/high vimentin are well-defined markers of cells that have a mesenchymal phenotype as characterized for example, in any one of the following references: (Yauch et al., (2005) Cin Cancer Res 11:24; Savagner et al., (2010) Ann Oncol. 21(suppl 7): vii89; Thiery et al., (2002) Nature Reviews Cancer June vol 2:442).

NCI-H524 = assay: Lung cancer cell line panel screened for sensitivity to BPTES, 72 hr proliferation assay
From the text: (§2) Of these, 44 of the cell lines have been classified as non-small cell lung cancer (NSCLC). […] Four of the top 25 transcriptional/cellular pathways were related to the epithelial-mesenchymal transition (EMT) (ranks 1, 15, 23, 25 of FIG. 2). […] Low E-cadherin/high vimentin are well-defined markers of cells that have a mesenchymal phenotype as characterized for example, in any one of the following references: (Yauch et al., (2005) Cin Cancer Res 11:24; Savagner et al., (2010) Ann Oncol. 21(suppl 7): vii89; Thiery et al., (2002) Nature Reviews Cancer June vol 2:442).

NCI-H1623 = assay: as above
From the text: as §2

COR-L279 = assay: as above
From the text: as §2

NCI-H748 = assay: as above
From the text: as §2

NCI-H1568 = assay: as above
From the text: as §2

NCI-H2405 = assay: as above
From the text: as §2

NCI-H1436 = assay: as above
From the text: as §2

NCI-H774 = assay: as above
From the text: as §2

NCI-H2347 = assay: as above
From the text: as §2

NCI-H2030 = assay: as above
From the text: as §2

NCI-H2081 = assay: as above
From the text: as §2

NCI-H522 = assay: as above
From the text: as §2

NCI-H520 = assay: as above
From the text: as §2

NCI-H292 = assay: as above
From the text: as §2

SW-1573 = assay: as above
From the text: as §2

NCI-H596 = assay: as above
From the text: as §2

NCI-H1395 = assay: as above
From the text: as §2

NCI-H209 = assay: as above
From the text: as §2

DMS-153 = assay: as above; settings: DMS-153 cell line
From the text: as §2

NCI-H82 = assay: as above
From the text: as §2

NCI-H1048 = assay: as above
From the text: as §2

H2228 = assay: as above
From the text: as §2

[2] = test system: panel of 62 lung cancer cell lines; assay: Lung cancer cell line panel screened for sensitivity to BPTES, whole panel
From the text: as §2

MDA-MB-231 cells [3] = assay: 13C(5)-Gln labeling of glutamate and aspartate, LC/MS; settings: 1 hr drug pre-treatment, 2 hr 13C(5)-Gln labeling
Description: as §1
Several groups have shown that GLS inhibition leads to a decrease in cellular tricarboxylic acid cycle (TCA) intermediates downstream of GLS activity (P. Gao et al. Nature 458, 762 (2009); T. Cheng et al. Proceedings of the National Academy of Sciences 108, 8674 (2011)). Measurement of glutamate (the product of the glutaminase reaction) and aspartate (which derives both carbon and nitrogen from glutamate) are particularly sensitive readouts of glutaminase activity (FIG. 13). ^13C labeled carbon in cells pre-treated with drug was tracked for 1 hr, followed by a 2 hr ^13C(5)-Gln labeling period, via LC/MS.

O=C(Cc1ccccc1)Nc1nnc(CCSCCc2nnc(NC(=O)Cc3ccccc3)s2)s1 [BPTES]
sensitivity to BPTES (MDA-MB-231 cells [1]; MDA-MB-231 cells expressing empty vector or GAC-WT): retained significant sensitivity | sensitivity to BPTES (MDA-MB-231 cells [1]; MDA-MB-231 cells with stable overexpression of the GAC-BR mutant): rendered resistant | Max Inh @ 10 uM (%) (LXF-289; LXF-289, 10 uM): 91% | Mu/max @10 uM (LXF-289; LXF-289, 10 uM): −0.25 | μ/μmax @10 uM (LXF-289; LXF-289, 10 uM): −0.25 | μ/μmax (LXF-289; LXF-289 cell line): −0.25 | sensitivity to BPTES (NCI-H28): most sensitive | μ/μmax (NCI-H524): 0.53 | μ/μmax (NCI-H1623): 0.79 | μ/μmax (COR-L279): 0.88 | μ/μmax (NCI-H748): 0.76 | Max Inh @ 10 uM (%) (NCI-H1568; NCI-H1568, 10 uM): 50% | Mu/max @10 uM (NCI-H1568; NCI-H1568, 10 uM): 0.25 | μ/μmax @10 uM (NCI-H1568; NCI-H1568, 10 uM): 0.25 | μ/μmax (NCI-H1568; NCI-H1568 cell line): 0.25 | μ/μmax (NCI-H2405): 0.92 | μ/μmax (NCI-H1436): 0.68 | μ/μmax (NCI-H774): 0.54 | μ/μmax (NCI-H2347): 0.90 | Max Inh @ 10 uM (%) (NCI-H2030; NCI-H2030, 10 uM): 87% | Mu/max @10 uM (NCI-H2030; NCI-H2030, 10 uM): 0.37 | μ/μmax @10 uM (NCI-H2030; NCI-H2030, 10 uM): 0.37 | μ/μmax (NCI-H2030; NCI-H2030 cell line): 0.37 | μ/μmax (NCI-H2081): 1.00 | Max Inh @ 10 uM (%) (NCI-H522; NCI-H522, 10 uM): 39% | Mu/max @10 uM (NCI-H522; NCI-H522, 10 uM): 0.61 | μ/μmax @10 uM (NCI-H522; NCI-H522, 10 uM): 0.61 | μ/μmax (NCI-H522; NCI-H522 cell line): 0.61 | Max Inh @ 10 uM (%) (NCI-H520; NCI-H520, 10 uM): 14% | Mu/max @10 uM (NCI-H520; NCI-H520, 10 uM): 0.79 | μ/μmax @10 uM (NCI-H520; NCI-H520, 10 uM): 0.79 | μ/μmax (NCI-H520; NCI-H520 cell line): 0.79 | μ/μmax (NCI-H292): 0.89 | Max Inh @ 10 uM (%) (SW-1573; SW-1573, 10 uM): 68% | Mu/max @10 uM (SW-1573; SW-1573, 10 uM): 0.12 | μ/μmax @10 uM (SW-1573; SW-1573, 10 uM): 0.12 | μ/μmax (SW-1573; SW-1573 cell line): 0.12 | Max Inh @ 10 uM (%) (NCI-H596; NCI-H596, 10 uM): 13% | Mu/max @10 uM (NCI-H596; NCI-H596, 10 uM): 0.84 | μ/μmax @10 uM (NCI-H596; NCI-H596, 10 uM): 0.84 | μ/μmax (NCI-H596; NCI-H596 cell line): 0.84 | Max Inh @ 10 uM (%) (NCI-H1395; NCI-H1395, 10 uM): 16% | Mu/max @10 uM (NCI-H1395; NCI-H1395, 10 uM): 0.61 | μ/μmax @10 uM (NCI-H1395; NCI-H1395, 10 uM): 0.61 | μ/μmax (NCI-H1395; NCI-H1395 cell line): 0.61 | μ/μmax (NCI-H209): 0.64 | μ/μmax (DMS-153): 0.58 | μ/μmax (NCI-H82): 0.90 | μ/μmax (NCI-H1048): 0.94 | μ/μmax (H2228): 0.69 | share of the 62 lines with significant sensitivity to BPTES (μ/μmax<0.6) [2]: Approximately 30% | 13C label accumulation in glutamate and aspartate (MDA-MB-231 cells [3]): decreased label accumulation
